Measured values reported in article PMC10257182, “Discovery of senolytics using machine learning” (Nature Communications, 2023).
Like-named read-outs stand apart in the source and are kept apart here.

Experiments:
Assay type in all cases: cell-based, human
[1] = test system: non-senescent control IMR90 ER:RAS cells; assay: Nuclei count (Hoechst, high content imaging) senolytic assay, OIS model, non-senescent control cells; settings: Homo sapiens; for viability at 10 µM: log (dose) [M] -5, 72 h; for viability at 4.677 µM: log (dose) [M] -5.33, 72 h; for viability at 2.188 µM: log (dose) [M] -5.66, 72 h; for viability at 0.4677 µM: log (dose) [M] -6.33, 72 h; for viability at 0.2188 µM: log (dose) [M] -6.66, 72 h; for viability at 0.02188 µM: log (dose) [M] -7.66, 72 h; for viability at 4.68 µM: log (dose) [M] -5.33; for viability at 2.19 µM: log (dose) [M] -5.66; for viability at 0.219 µM: log (dose) [M] -6.66
Outline: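 Compared non-senescent and senescent IMR90 ER:RAS cultures (senescence induced with 4-OHT at 100 nM final); cells seeded 24 h before dosing, then exposed 72 h to compounds, 10-point […] range 10 μM–10 nM, triplicate. Fixed, Hoechst-stained, nuclei counted by high-content imaging; drop versus untreated reflects cell death.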

[2] = test system: non-senescent control A549 cells; assay: Nuclei count senolytic assay, TIS model, non-senescent control cells; settings: Homo sapiens, A549, Control cells, mean, read-out: Mean % Cell Survival; for viability at 10 µM: log (dose) [M] -5; for viability at 4.68 µM: log (dose) [M] -5.33; for viability at 2.19 µM: log (dose) [M] -5.66; for viability at 1 µM: log (dose) [M] -6; for viability at 0.468 µM: log (dose) [M] -6.33; for viability at 0.219 µM: log (dose) [M] -6.66; for viability at 0.1 µM: log (dose) [M] -7; for viability at 0.0468 µM: log (dose) [M] -7.33; for viability at 0.01 µM: log (dose) [M] -8
Outline: (§1)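 A549 cells made senescent with 100 μM etoposide for 48 h then 3 days in normal media; non-senescent A549 as control. Cells were exposed for 72 h to a 10-point […] range (10 μM–10 nM) in triplicate, then fixed, Hoechst-stained and imaged for nuclei count.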

[3] = test system: senescent A549 cells (etoposide-induced); assay: Nuclei count senolytic assay, therapy-induced senescence (TIS) model, senescent cells; settings: Homo sapiens, A549, Senescent cells, mean, read-out: Mean % Cell Survival; for viability at 10 µM: log (dose) [M] -5; for viability at 4.68 µM: log (dose) [M] -5.33; for viability at 2.19 µM: log (dose) [M] -5.66; for viability at 1 µM: log (dose) [M] -6; for viability at 0.468 µM: log (dose) [M] -6.33; for viability at 0.219 µM: log (dose) [M] -6.66; for viability at 0.1 µM: log (dose) [M] -7; for viability at 0.0468 µM: log (dose) [M] -7.33; for viability at 0.0219 µM: log (dose) [M] -7.66; for viability at 0.01 µM: log (dose) [M] -8
Outline: as §1

[4] = IMR-90, 72 h, Control, mean n=3 (Fig 3C), read-out: Mean % Cell Survival
[5] = IMR-90, 72 h, Control, log (dose) [M] -6, 72 h, mean n=3 (Fig 3C), read-out: Mean % Cell Survival
[6] = IMR-90, 72 h, Control, log (dose) [M] -7, 72 h, mean n=3 (Fig 3C), read-out: Mean % Cell Survival
[7] = IMR-90, 72 h, Control, log (dose) [M] -7.33, 72 h, mean n=3 (Fig 3C), read-out: Mean % Cell Survival
[8] = IMR-90, 72 h, Control, log (dose) [M] -8, 72 h, mean n=3 (Fig 3C), read-out: Mean % Cell Survival
[9] = IMR-90, Control, read-out: % Cell Survival
[10] = IMR-90, Control, log (dose) [M] -6, read-out: % Cell Survival
[11] = IMR-90, Control, log (dose) [M] -7, read-out: % Cell Survival
[12] = IMR-90, Control, log (dose) [M] -7.33, read-out: % Cell Survival
[13] = IMR-90, Control, log (dose) [M] -8, read-out: % Cell Survival

## CO[C@H]1C[C@@H]2CC[C@@H](C)[C@@](O)(O2)C(=O)C(=O)N2CCCC[C@H]2C(=O)O[C@H]([C@H](C)C[C@@H]2CC[C@@H](OCCO)[C@H](OC)C2)CC(=O)[C@H](C)/C=C(\C)[C@@H](O)[C@@H](OC)C(=O)[C@H](C)C[C@H](C)/C=C/C=C/C=C/1C [Everolimus, everolimus, reference compound]
[1]; [4]
  viability at 10 µM: 107%
  viability at 4.677 µM: 109%
  viability at 2.188 µM: 107%
  viability at 0.4677 µM: 105%
  viability at 0.2188 µM: 100%
  viability at 0.02188 µM: 102%
[1]; [5]
  viability at 1 µM: 104%
[1]; [6]
  viability at 0.1 µM: 109%
[1]; [7]
  viability at 0.04677 µM: 105%
[1]; [8]
  viability at 0.01 µM: 104%
[1]; [9]
  viability at 4.68 µM: 107%
  viability at 2.19 µM: 108%
  viability at 0.219 µM: 109%
[1]; [10]
  viability at 1 µM: 106%
[1]; IMR-90, Control, log (dose) [M] -6.33, read-out: % Cell Survival
  viability at 0.468 µM: 92.7%
[1]; [11]
  viability at 0.1 µM: 105%
[1]; [12]
  viability at 0.04677 µM: 116%
[1]; IMR-90, Control, log (dose) [M] -7.66, read-out: % Cell Survival
  viability at 0.0219 µM: 115%
[1]; [13]
  viability at 0.01 µM: 118%
[2]
  viability at 10 µM: 106%
  viability at 4.68 µM: 103%
  viability at 2.19 µM: 103%
  viability at 1 µM: 102%
  viability at 0.468 µM: 67.5%
  viability at 0.219 µM: 103%
  viability at 0.1 µM: 102%
  viability at 0.0468 µM: 106%
  viability at 0.01 µM: 108%
[2]; log (dose) [M] -7.66
  viability at 0.0219 µM: 105%
[3]
  viability at 10 µM: 71.7%
  viability at 4.68 µM: 84.3%
  viability at 2.19 µM: 79.6%
  viability at 1 µM: 66.9%
  viability at 0.468 µM: 72.1%
  viability at 0.219 µM: 74.4%
  viability at 0.1 µM: 76.2%
  viability at 0.0468 µM: 85.6%
  viability at 0.0219 µM: 95%
  viability at 0.01 µM: 94.7%

## Cc1cc2c(C(C)C)c(O)c(O)c(C=O)c2c(O)c1-c1c(C)cc2c(C(C)C)c(O)c(O)c(C=O)c2c1O [Gossypol, gossypol]
[1]; [4]
  viability at 10 µM: 86.7%
  viability at 4.677 µM: 131%
  viability at 2.188 µM: 118%
  viability at 0.4677 µM: 135%
  viability at 0.2188 µM: 146%
  viability at 0.02188 µM: 121%
[1]; [5]
  viability at 1 µM: 120%
[1]; [6]
  viability at 0.1 µM: 126%
[1]; [7]
  viability at 0.04677 µM: 143%
[1]; [8]
  viability at 0.01 µM: 109%
[1]; [9]
  viability at 4.68 µM: 113%
  viability at 2.19 µM: 99.8%
  viability at 0.219 µM: 94.1%
[1]; [10]
  viability at 1 µM: 101%
[1]; [11]
  viability at 0.1 µM: 94.9%
[1]; [12]
  viability at 0.04677 µM: 101%
[1]; [13]
  viability at 0.01 µM: 104%
[2]
  viability at 10 µM: 117%
  viability at 4.68 µM: 107%
  viability at 2.19 µM: 100%
  viability at 1 µM: 101%
  viability at 0.468 µM: 108%
  viability at 0.219 µM: 94.5%
  viability at 0.1 µM: 68%
  viability at 0.0468 µM: 101%
  viability at 0.01 µM: 78.1%
[3]
  viability at 10 µM: 110%
  viability at 4.68 µM: 146%
  viability at 2.19 µM: 166%
  viability at 1 µM: 126%
  viability at 0.468 µM: 74.4%
  viability at 0.219 µM: 149%
  viability at 0.1 µM: 112%
  viability at 0.0468 µM: 69.1%
  viability at 0.0219 µM: 107%
  viability at 0.01 µM: 117%
